Holding throughout (assay): DTP human tumour cell line panel, 48 h
For assay [1], the system named is 786-0 renal.
Assay [2] concerns A549 NSCLC.
For assay [3], the system named is ACHN renal.
The subject of assay [4] is DU-145 prostate.
In assay [5] the test system is HL-60(TB) leukemia.
The test system of assay [6] is HOP-92 NSCLC.
The subject of assay [7] is OVCAR-4 ovarian.
Assay [8] deals with SN12C renal.
The test system of assay [9] is SNB-19 CNS.
In assay [10] the test system is U251 CNS.

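Test compounds were applied to cells in 96-well plates for 48 hours at 5 doses. GI50: concentration for 50% inhibition of growth. TGI: concentration producing complete growth inhibition.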

For `O=C1C(=O)c2ccc(Br)cc2-c2cc(Br)ccc21`, the GI50 (as a rule, the concentration giving 50% growth inhibition) in assay [1] is 10.4 µM; in [2], 5.37 µM; in assay [3] it was 1.52 µM; in assay [4] it was 7.29 µM; in assay [5] it was 0.607 µM; in [6] it was 1.36 µM. Further, the GI50 in [7] was 0.274 µM; in [8] it was 2.14 µM; in assay [9], 11 µM; in [10], 1.42 µM. Moreover, the TGI (usually the concentration at which net growth stops) in assay [1] was more than 56.3 µM; in assay [2] it was more than 95.6 µM; in [4] it was more than 100 µM; in assay [5], 1.71 µM; in assay [6] it was 9.5 µM; in assay [7] it was 0.696 µM. For the same molecule, the total growth inhibition concentration (TGI) in assay [8] was 11.2 µM; in assay [9], more than 100 µM; in [10] it was 9.04 µM.
With `COc1ccc(-c2cc3cccc(OC)c3c(=O)o2)cc1OC`, the GI50 was 50.2 µM in assay [1]; 59.4 µM in assay [2]; 59.3 µM in assay [3]; 0.795 µM in assay [4]; 76.2 µM in assay [5]; 37.2 µM in [6]. The GI50 in [7] was more than 100 µM; in assay [8] it was 19.7 µM; in assay [9], 41.3 µM; in assay [10], 12.4 µM. Also, the TGI in [1], in assay [2], in assay [3], in assay [4], in [5] and in assay [6] was more than 100 µM throughout. The TGI in assay [7], in assay [8], in assay [9] and in assay [10] was more than 100 µM each time.
`COc1cc(-c2c3c(cn2S(=O)(=O)c2ccccc2)-c2nc(N)sc2CC3)cc(OC)c1OC`: the GI50 in [1] is 1.71 µM; in [2], 0.58 µM; in assay [3] it was 0.797 µM; in assay [4] it was 1.54 µM; in [5] it was 0.385 µM; in assay [6] it was 0.407 µM. Moreover, the GI50 was 2.04 µM in assay [7], 4.45 µM in assay [8], 11 µM in assay [9] and 0.591 µM in assay [10]. For the same molecule, the TGI was 19.7 µM in assay [1]; 17.1 µM in assay [2]; 31.1 µM in [3]; 41.9 µM in assay [4]; 4.32 µM in assay [5]; 8.34 µM in assay [6]. Also, the TGI was 32.3 µM in [7], more than 100 µM in assay [8], more than 100 µM in assay [9] and 10.5 µM in assay [10].
With `CCC(=O)Sc1ccccc1C(=O)Nc1ccc(Cl)cc1`, the GI50 in [1] was 15 µM; in assay [2], 11.7 µM; in assay [3], 16.5 µM; in [4], 22.1 µM; in [5], 3.65 µM; in [6] it was 2.52 µM. For the same molecule, the GI50 in assay [7] is 13.1 µM; in assay [8] it was 4.26 µM; in [9], 16.6 µM; in assay [10], 5.73 µM. Moreover, the TGI in assay [1] is 41.8 µM; in [2], more than 100 µM; in assay [3], 71.6 µM; in assay [4] it was 74.3 µM; in assay [5], 19.8 µM; in assay [6] it was 9.67 µM. The TGI in assay [7] is more than 100 µM; in assay [8], 41.8 µM; in [9] it was 68.8 µM; in [10] it was 32.3 µM.
Take `CC1(C)CCC(S(=O)(=O)c2ccc3c(c2)/C(=N\O)c2cc(S(=O)(=O)N4CCC(O)(c5cccc(C(F)(F)F)c5)CC4)ccc2-3)CC1`: the GI50 in [1] is 0.145 µM; in [2], 0.034 µM; in assay [3], 0.0431 µM; in [4] it was 0.0319 µM; in assay [5], 0.0203 µM; in assay [6], 0.517 µM. Further, the GI50 in [7] is 0.0251 µM; in assay [8], 0.0612 µM; in [9], 0.0673 µM; in assay [10], 0.02 µM. In addition, the TGI in assay [1] worked out at 0.36 µM; in [2], 1.05 µM; in assay [3], 1.41 µM; in assay [4], 0.115 µM; in assay [5], 0.0681 µM; in assay [6], 3.48 µM. Besides, the TGI was 0.0744 µM in [7], 2.2 µM in [8], 0.215 µM in assay [9] and 0.0384 µM in [10].
With `OCC1SC(n2cnc3cncnc32)C(O)C1O` (centres undefined), the GI50 in assay [1] was more than 100 µM; in assay [2], more than 100 µM; in [3], more than 100 µM; in assay [4] it was more than 100 µM; in assay [5], more than 100 µM; in assay [6] it was 48.1 µM. Moreover, the GI50 in assay [7], in assay [8], in [9] and in assay [10] was more than 100 µM in each case. Further, the TGI in [1], in assay [2], in assay [3], in assay [4], in assay [5] and in assay [6] was more than 100 µM in each case. Besides, the TGI in assay [7], in assay [8], in [9] and in assay [10] was more than 100 µM in each case.
Take `COc1ccc(C(CC(=O)c2ccccc2)C(C(=O)c2ccccc2)C(c2ccc(OC)cc2)C2C(=O)NC(=O)NC2=O)cc1` (centres undefined): the GI50 in assay [1] was 27.8 µM; in [2], 15.9 µM; in assay [3] it was 17.9 µM; in [4], 19.2 µM; in assay [5] it was 41.2 µM; in [6], 2.3 µM. Further, the GI50 in assay [7] is 26 µM; in assay [8], 24.2 µM; in assay [9] it was 13.7 µM; in assay [10], 10.7 µM. Besides, the TGI in assay [1] is more than 100 µM; in [2] it was more than 100 µM; in assay [3] it was more than 100 µM; in assay [4], 70.5 µM; in assay [5] it was more than 100 µM; in [6], 50.2 µM. Also, the TGI in assay [7] is more than 100 µM; in assay [8] it was more than 100 µM; in assay [9], more than 100 µM; in assay [10], 51.3 µM.

The values above are taken from PubChem BioAssay (NCI).
